# Experimental data published in patent US20240207302A1, “ANTIVIRAL COMPOUNDS, METHODS FOR THE MANUFACTURING OF COMPOUNDS, ANTIVIRAL PHARMACEUTICAL COMPOSITION, USE OF THE COMPOUNDS AND METHOD FOR THE ORAL TREATMENT OF CORONAVIRUS INFECTION AND RELATED DISEASES THEREOF” (priority 2021, published 2024).
# What was measured:
# [1] = Pharmacokinetics of MB-905 in plasma of mice
# From the text: FIG. 8A to 8F. […] The number of animals is shown in each figure legends. The vertical lines represent the mean±the standard error deviation.
# All animals were maintained under SPF (Specific Pathogen Frec) animal conditions and were obtained from CIEnP facility, whose breeding colonies were purchased from Charles River Laboratories (USA). […] The samples collected from each animal and at each collection time were processed and analyzed individually. For the analysis of plasma and lung, UPLC-MS/MS equipment was used, whose system consists of a Xevo TQS mass spectrometer with a triple-quadrupole mass analyzer, from Waters. The mass spectrometer is coupled to a high-performance liquid chromatograph (Acquity H-Class). The acquisition and treatment of the data were performed with the MassLynx software. […] The calculation of bioavailability was performed using the following equation: F (%)=[(Intravenous dose×oral AUC)/(Oral dose×Intravenous AUC)]×100.
# [2] = test system: mouse bone marrow polychromatic erythrocytes; assay: Micronucleus test in mouse bone marrow; type: in vivo; settings: mice
# Description: The ratio of polychromatic to normochromatic erythrocytes and the count of micronuclei were determined. This assay was conducted in compliance with the GLP principles.
# [3] = test system: SARS-COV-2; assay: SARS-COV-2 viral RNA synthesis in Calu-3 cells (real time RT-PCR); type: cell-based; settings: 1.0 μM
# [4] = Cardiovascular safety pharmacology by telemetry; settings: rats; 50 or 250 mg/Kg oral, single or repeated (7 days)
# Description: Data are presented as mean±S.E.M. Statistical analysis was performed by two-way ANOVA followed by Bonferroni post hoc test. n=4-6 animals per group.
# [5] = both, CD1, mouse, plasma, iv, 3 mg/kg
# [6] = both, CD1, mouse, plasma, po, 30 mg/kg
structure (smiles),measurement,setting,value
"c1coc(CNc2ncnc3[nH]cnc23)c1 [MB-905, kinetin]",Cmax,[1]; [5],0.135 µg/mL
same,Vd,[1]; [5],19.4 L/kg
same,AUC(0-t),[1]; [6],0.366 µg·h/mL
same,Cmax,[1]; [6],0.57 µg/mL
same,half-life,[1]; [6],66 min
same,Cmax,"[1]; both, CD1, mouse, plasma, po, 550 mg/kg",1.05 µg/mL
same,AUCall,"[1]; mice plasma, 3 mg/kg (i.v.)",0.06641 µg·h/mL
same,CL,"[1]; mice plasma, 3 mg/kg (i.v.)",55.103 L/h/kg
same,Cmax,"[1]; mice plasma, 3 mg/kg (i.v.)",0.15516 µg/mL
same,F,"[1]; mice plasma, 3 mg/kg (i.v.)",100%
same,Ke,"[1]; mice plasma, 3 mg/kg (i.v.)",3.09 h⁻¹
same,T1/2,"[1]; mice plasma, 3 mg/kg (i.v.)",13.2 min
same,Tmax,"[1]; mice plasma, 3 mg/kg (i.v.)",4.98 min
same,Vz,"[1]; mice plasma, 3 mg/kg (i.v.)",19.04 L/kg
same,AUClast,"[1]; mice plasma, 3 mg/kg (i.v.), 3 mg/kg",0.05558 µg·h/mL
same,CL,"[1]; mice plasma, 30 mg/kg (v.o.)",63.609 L/h/kg
same,Ke,"[1]; mice plasma, 30 mg/kg (v.o.)",0.62 h⁻¹
same,Vz,"[1]; mice plasma, 30 mg/kg (v.o.)",102.21 L/kg
same,F,"[1]; mice plasma, 30 mg/kg (v.o.), 30 mg/kg","53,5%"
same,Ke,"[1]; mice plasma, 550 mg/kg (v.o.)",0.25 h⁻¹
same,F,"[1]; mice plasma, 550 mg/kg (v.o.), 550 mg/kg",36.1%
same,"MNPCE/4,000 PCE (Mean ± S.D.)",[2]; 32 mg/Kg p.o.,8.50 ± 4.50
same,"MNPCE/4,000 PCE (Mean ± S.D.)",[2]; 125 mg/Kg p.o.,8.50 ± 3.81
same,"MNPCE/4,000 PCE (Mean ± S.D.)",[2]; 500 mg/Kg p.o.,9.00 ± 2.45
same,inhibition of SARS-COV-2 RNA synthesis,[3],best profiles
same,"cardiovascular hemodynamic parameters (systolic, diastolic, mean blood pressure, heart rate)",[4],did not induces any changes
